Measured values from patent US20260297060A1, “COMPOUNDS FOR THE DEGRADATION OF MUTANT BRAF” (C4 THERAPEUTICS, INC., priority 2023, published 2026).
Read-outs that look alike come from different tables or passages of the source.

Target: T1, BRAF V600E (Homo sapiens, UniProt P15056+Q96SW2, V600E)
T1 construct: knock-in of the HiBiT tag to the endogenous BRAF V600E locus; host or cells: A375.10 (A375 clonal line, CRISPR HiBiT knock-in at the endogenous BRAF V600E locus)
Assay: BRAF V600E HiBiT Degradation Assay
Type: cell-based
Procedure, shortened: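 Endogenous HiBiT knock-in on BRAF V600E in A375 cells (clone A375.10); 11-point half-log series, top 10 μM, 2, 6 or 24 h at 37° C. Lytic HiBiT luminescence, background-subtracted, normalized to DMSO; 4-parameter fit gives DC50, Emax (residual protein) and IP (inflection point).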

[1] = A375.10 cells, BRAF V600E, 2 hours, inflection point, read-out: HiBiT-Degradation A375.10 BRAF 2 hours IP
[2] = A375.10 cells, BRAF V600E, 2 hours, read-out: HiBiT-Degradation A375.10 BRAF 2 hours DC50
[3] = A375.10 cells, BRAF V600E, 2 hours, residual protein remaining, read-out: HiBiT-Degradation A375.10 BRAF 2 hours Emax
[4] = A375.10 cells, BRAF V600E, 6 hours, inflection point, read-out: HiBiT-Degradation A375.10 BRAF 6 hours IP
[5] = A375.10 cells, BRAF V600E, 6 hours, read-out: HiBiT-Degradation A375.10 BRAF 6 hours DC50
[6] = A375.10 cells, BRAF V600E, 6 hours, residual protein remaining, read-out: HiBiT-Degradation A375.10 BRAF 6 hours Emax
[7] = A375.10 cells, HiBiT, BRAF V600E, 24 hours, read-out: HiBiT-Degradation A375.10 BRAF 24 hours DC50
[8] = A375.10 cells, HiBiT, BRAF V600E, 24 hours, read-out: HiBiT-Degradation A375.10 BRAF 24 hours Emax
[9] = A375.10 cells, HiBiT, BRAF V600E, 24 hours, read-out: HiBiT-Degradation A375.10 BRAF 24 hours IP
[10] = read-out: HiBiT-Degradation A375.10 BRAF 2 hours Emax, A375.10 cells, BRAF V600E, 2 hours, residual protein remaining

T1 sequence (P15056 whole entry V600E): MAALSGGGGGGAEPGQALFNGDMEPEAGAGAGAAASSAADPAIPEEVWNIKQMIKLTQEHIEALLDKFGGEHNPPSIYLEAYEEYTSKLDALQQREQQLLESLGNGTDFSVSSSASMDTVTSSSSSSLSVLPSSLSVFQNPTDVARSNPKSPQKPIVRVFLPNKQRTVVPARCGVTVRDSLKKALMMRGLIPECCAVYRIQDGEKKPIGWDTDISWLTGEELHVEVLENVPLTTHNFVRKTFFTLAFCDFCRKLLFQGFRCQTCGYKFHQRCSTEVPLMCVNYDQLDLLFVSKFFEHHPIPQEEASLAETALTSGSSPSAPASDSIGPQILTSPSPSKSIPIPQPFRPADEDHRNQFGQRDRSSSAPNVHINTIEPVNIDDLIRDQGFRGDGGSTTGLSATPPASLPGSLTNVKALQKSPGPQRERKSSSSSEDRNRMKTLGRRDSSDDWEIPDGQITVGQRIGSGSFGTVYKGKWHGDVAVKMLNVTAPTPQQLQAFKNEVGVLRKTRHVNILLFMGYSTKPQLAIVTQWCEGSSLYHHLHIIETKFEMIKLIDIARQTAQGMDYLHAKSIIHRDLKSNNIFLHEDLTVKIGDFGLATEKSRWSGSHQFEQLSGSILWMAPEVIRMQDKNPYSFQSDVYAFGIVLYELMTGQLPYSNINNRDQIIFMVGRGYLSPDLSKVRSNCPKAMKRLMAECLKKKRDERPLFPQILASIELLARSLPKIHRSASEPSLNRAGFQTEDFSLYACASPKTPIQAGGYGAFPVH
T1 sequence (Q96SW2 whole entry): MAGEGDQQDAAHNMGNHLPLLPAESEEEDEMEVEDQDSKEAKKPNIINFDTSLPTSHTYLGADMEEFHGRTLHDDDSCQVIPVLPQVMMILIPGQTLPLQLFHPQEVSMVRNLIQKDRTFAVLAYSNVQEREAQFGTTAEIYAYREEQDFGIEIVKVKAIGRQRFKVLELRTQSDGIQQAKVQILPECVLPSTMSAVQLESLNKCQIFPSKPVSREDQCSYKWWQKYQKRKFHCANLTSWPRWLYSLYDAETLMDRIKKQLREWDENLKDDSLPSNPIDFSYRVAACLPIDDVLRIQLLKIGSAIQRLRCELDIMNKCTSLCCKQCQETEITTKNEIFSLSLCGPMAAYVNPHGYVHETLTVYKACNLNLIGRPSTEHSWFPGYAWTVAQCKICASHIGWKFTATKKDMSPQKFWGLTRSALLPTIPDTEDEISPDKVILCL
T1 sequence (Q16531 whole entry partner): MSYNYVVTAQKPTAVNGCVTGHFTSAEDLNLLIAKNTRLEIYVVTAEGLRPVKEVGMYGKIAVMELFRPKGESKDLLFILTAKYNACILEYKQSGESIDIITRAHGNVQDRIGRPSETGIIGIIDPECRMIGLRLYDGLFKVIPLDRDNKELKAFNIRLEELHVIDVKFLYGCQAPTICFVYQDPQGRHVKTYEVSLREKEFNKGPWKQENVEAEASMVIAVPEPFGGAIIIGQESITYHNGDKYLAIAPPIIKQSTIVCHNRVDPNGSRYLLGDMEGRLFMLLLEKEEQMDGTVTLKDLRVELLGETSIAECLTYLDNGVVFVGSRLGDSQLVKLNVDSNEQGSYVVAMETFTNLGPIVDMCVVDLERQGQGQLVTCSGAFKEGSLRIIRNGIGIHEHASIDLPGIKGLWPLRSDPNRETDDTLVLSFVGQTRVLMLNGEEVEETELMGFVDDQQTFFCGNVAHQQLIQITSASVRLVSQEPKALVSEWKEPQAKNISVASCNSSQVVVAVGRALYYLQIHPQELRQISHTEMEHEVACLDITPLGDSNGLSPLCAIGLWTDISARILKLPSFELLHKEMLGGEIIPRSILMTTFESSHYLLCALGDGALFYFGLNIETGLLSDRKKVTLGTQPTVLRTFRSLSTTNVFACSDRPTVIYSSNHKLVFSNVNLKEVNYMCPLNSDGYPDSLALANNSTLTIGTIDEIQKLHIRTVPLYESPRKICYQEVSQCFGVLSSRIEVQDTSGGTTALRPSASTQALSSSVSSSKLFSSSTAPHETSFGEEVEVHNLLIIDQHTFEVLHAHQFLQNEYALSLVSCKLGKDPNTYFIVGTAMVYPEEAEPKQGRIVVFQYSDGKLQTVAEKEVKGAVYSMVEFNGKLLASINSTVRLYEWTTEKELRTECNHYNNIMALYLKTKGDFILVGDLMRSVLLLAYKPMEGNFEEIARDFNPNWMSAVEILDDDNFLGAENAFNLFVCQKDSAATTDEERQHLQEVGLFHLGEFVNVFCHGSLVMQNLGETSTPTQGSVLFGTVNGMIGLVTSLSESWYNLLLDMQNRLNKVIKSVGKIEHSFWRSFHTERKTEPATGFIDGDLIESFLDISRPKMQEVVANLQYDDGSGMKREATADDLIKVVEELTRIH

Compound	DC50 [1] [nM]	DC50 [2] [nM]	Emax [3] [%]	DC50 [4] [nM]	DC50 [5] [nM]	Emax [6] [%]	DC50 [7] [nM]	Emax [8] [%]	DC50 [9] [nM]	DC50 (read-out: HiBiT-Degradation A375.10 BRAF 2 hours DC50, A375.10 cells, BRAF V600E, 2 hours) [nM]	Emax [10] [%]	DC50 (read-out: HiBiT-Degradation A375.10 BRAF 2 hours IP, A375.10 cells, BRAF V600E, 2 hours, inflection point) [nM]
CC(C)S(=O)(=O)Nc1ccc(F)c(Oc2ccc3ncn([C@H]4COC5(CCN(C6CC7(C6)CN(c6cc8c(cc6F)c(N6CCC(=O)NC6=O)nn8C)C7)CC5)C4)c(=O)c3c2)c1C#N [Compound 134, N-[2-cyano-3-[3-[(3R)-8-[2-[3-(2,4-dioxohexahydropyrimidin-1-yl)-5-fluoro-1-methyl-indazol-6-yl]-2-azaspiro[3.3]heptan-6-yl]-1-oxa-8-azaspiro[4.5]decan-3-yl]-4-oxo-quinazolin-6-yl]oxy-4-fluoro-phenyl]propane-2-sulfonamide]	< 1000	< 1000	50 to 90	< 1000	< 1000	< 50	< 1000	< 50	< 1000	–	–	–
CCN(C)S(=O)(=O)Nc1ccc(F)c(Oc2ccc3ncn([C@@H]4COC5(CCN(C6CCC(c7ccc(NC8CCC(=O)NC8=O)cc7F)CC6)CC5)C4)c(=O)c3c2F)c1C#N (single isomer, unassigned) [Compound 52]	< 1000	< 1000	< 50	< 1000	< 1000	< 50	< 1000	< 50	< 1000	–	–	–
CCN(C)S(=O)(=O)Nc1ccc(F)c(Oc2ccc3ncn(CC4CCN(C5CCC(c6cc7c(cc6F)c(N6CCC(=O)NC6=O)nn7C)CC5)CC4)c(=O)c3c2)c1C#N (single isomer, unassigned) [Compound 126, 6-[2-cyano-3-[[ethyl(methyl)sulfamoyl]amino]-6-fluoro-phenoxy]-3-[[1-[4-[3-(2,4-dioxohexahydropyrimidin-1-yl)-5-fluoro-1-methyl-indazol-6-yl]cyclohexyl]-4-piperidyl]methyl]-4-oxo-quinazoline]	< 1000	< 1000	< 50	< 1000	< 1000	< 50	< 1000	< 50	< 1000	–	–	–
CCN(C)S(=O)(=O)Nc1ccc(F)c(Oc2ccc3ncn([C@H]4COC5(CCN(C6CCC(c7ccc(NC8CCC(=O)NC8=O)cc7F)CC6)CC5)C4)c(=O)c3c2)c1F (single isomer, unassigned) [Compound 78]	< 1000	< 1000	< 50	< 1000	< 1000	< 50	< 1000	< 50	< 1000	–	–	–
CCN(C)S(=O)(=O)Nc1ccc(F)c(Oc2ccc3ncn([C@H]4COC5(CCN(C6CCC(c7cc8c(cc7F)c(N7CCC(=O)NC7=O)nn8C)CC6O)CC5)C4)c(=O)c3c2)c1C#N (single isomer, unassigned) [Compound 43]	< 1000	< 1000	50 to 90	< 1000	< 1000	< 50	< 1000	< 50	< 1000	–	–	–
COC1CN(S(=O)(=O)Nc2ccc(F)c(Oc3ccc4ncn([C@H]5COC6(CCN(C7CC8(C7)CN(c7cc9c(cc7F)c(N7CCC(=O)NC7=O)nn9C)C8)CC6)C5)c(=O)c4c3)c2C#N)C1 [Compound 246, N-[2-cyano-3-[3-[(3R)-8-[2-[3-(2,4-dioxohexahydropyrimidin-1-yl)-5-fluoro-1-methyl-indazol-6-yl]-2-azaspiro[3.3]heptan-6-yl]-1-oxa-8-azaspiro[4.5]decan-3-yl]-4-oxo-quinazolin-6-yl]oxy-4-fluoro-phenyl]-3-methoxy-azetidine-1-sulfonamide]	–	–	–	–	–	–	–	–	–	1000 to 10000	50 to 90	< 1000
CCN(C)S(=O)(=O)Nc1ccc(F)c(Oc2ccc3ncn(C4CC5(CCN(C6CCC(c7ccc(NC8CCC(=O)NC8=O)cc7F)CC6)CC5)C4)c(=O)c3c2)c1C#N (single isomer, unassigned) [Compound 6, 6-[2-cyano-3-[[ethyl(methyl)sulfamoyl]amino]-6-fluoro-phenoxy]-3-[7-[4-[4-[(2,6-dioxo-3-piperidyl)amino]-2-fluoro-phenyl]cyclohexyl]-7-azaspiro[3.5]nonan-2-yl]-4-oxo-quinazoline]	< 1000	< 1000	< 50	< 1000	< 1000	< 50	< 1000	< 50	< 1000	–	–	–
Cn1nc(N2CCC(=O)NC2=O)c2cc(F)c(N3CC4(CC(N5CCC6(CC5)CC(n5cnc7ccc(Oc8c(F)ccc(NS(=O)(=O)C9CCCC9)c8C#N)cc7c5=O)C6)C4)C3)cc21 [Compound 250, N-[2-cyano-3-[3-[7-[2-[3-(2,4-dioxohexahydropyrimidin-1-yl)-5-fluoro-1-methyl-indazol-6-yl]-2-azaspiro[3.3]heptan-6-yl]-7-azaspiro[3.5]nonan-2-yl]-4-oxo-quinazolin-6-yl]oxy-4-fluoro-phenyl]cyclopentanesulfonamide]	< 1000	< 1000	–	–	–	–	–	–	–	–	< 50	–
CCN(C)S(=O)(=O)Nc1ccc(F)c(Oc2ccc3ncn(C4CC5(CCN(C6CC7(C6)CN(c6cc8c(cc6F)c(N6CCC(=O)NC6=O)nn8C)C7)CC5)C4)c(=O)c3c2)c1C#N (stereo not drawn) [Compound 141, 6-[2-cyano-3-[[ethyl(methyl)sulfamoyl]amino]-6-fluoro-phenoxy]-3-[7-[2-[3-(2,4-dioxohexahydropyrimidin-1-yl)-5-fluoro-1-methyl-indazol-6-yl]-2-azaspiro[3.3]heptan-6-yl]-7-azaspiro[3.5]nonan-2-yl]-4-oxo-quinazoline]	< 1000	< 1000	–	< 1000	< 1000	< 50	< 1000	< 50	< 1000	–	< 50	–
CCN(C)S(=O)(=O)Nc1ccc(F)c(Oc2ccc3ncc(C4CC5(CCN(C6CCC(c7cc8c(cc7F)c(N7CCC(=O)NC7=O)nn8C)CC6)CC5)C4)nc3c2)c1C#N (single isomer, unassigned) [Compound 180, 7-[2-cyano-3-[[ethyl(methyl)sulfamoyl]amino]-6-fluoro-phenoxy]-2-[7-[4-[3-(2,4-dioxohexahydropyrimidin-1-yl)-5-fluoro-1-methyl-indazol-6-yl]cyclohexyl]-7-azaspiro[3.5]nonan-2-yl]quinoxaline]	< 1000	< 1000	–	< 1000	< 1000	< 50	< 1000	< 50	< 1000	–	< 50	–
CCN(C)S(=O)(=O)Nc1ccc(F)c(Nc2ccc3ncn([C@H]4COC5(CCN(C6CCC(c7cc8c(cc7F)c(N7CCC(=O)NC7=O)nn8C)CC6)CC5)C4)c(=O)c3c2F)c1C#N (single isomer, unassigned) [Compound 67]	< 1000	< 1000	< 50	< 1000	< 1000	< 50	< 1000	< 50	< 1000	–	–	–
CCN(C)S(=O)(=O)Nc1ccc(F)c(Oc2ccc3ncn([C@H]4COC5(CCC(N6CC7(CN(c8ccc(NC9CCC(=O)NC9=O)cc8F)C7)C6)CC5)C4)c(=O)c3c2)c1C#N (stereo partly drawn) [Compound 30, 6-[2-cyano-3-[[ethyl(methyl)sulfamoyl]amino]-6-fluoro-phenoxy]-3-[(3R)-8-[6-[4-[(2,6-dioxo-3-piperidyl)amino]-2-fluoro-phenyl]-2,6-diazaspiro[3.3]heptan-2-yl]-1-oxaspiro[4.5]decan-3-yl]-4-oxo-quinazoline]	< 1000	< 1000	–	< 1000	< 1000	< 50	< 1000	< 50	< 1000	–	< 50	–
CCN(C)S(=O)(=O)Nc1ccc(F)c(Oc2ccc3ncn(C4CC5(CCN(C6CCC(c7cc8c(cc7F)c(N7CCC(=O)NC7=O)nn8C)CC6)CC5)C4)c(=O)c3c2)c1F (single isomer, unassigned) [Compound 178, 3-[7-[4-[3-(2,4-dioxohexahydropyrimidin-1-yl)-5-fluoro-1-methyl-indazol-6-yl]cyclohexyl]-7-azaspiro[3.5]nonan-2-yl]-6-[3-[[ethyl(methyl)sulfamoyl]amino]-2,6-difluoro-phenoxy]-4-oxo-quinazoline]	< 1000	< 1000	< 50	< 1000	< 1000	< 50	< 1000	< 50	< 1000	–	–	–
